# Reference: the supplement of paper PMC9938120
# Tests used:
# Assay in all cases: drug sensitivity score (DSS3, normalised partial AUC of % inhibition dose-response) (DSS (score)); higher = more sensitive (stronger inhibition of viability); extreme values may be limits of the assay
# FMOC06 = patient-derived mucinous ovarian cancer cells; conditions: 72 h; library: FO5A; assay format: 2D, 384-well, CellTiter-Glo
# Outline: (§1)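 On 384-well flat clear-bottom plates carrying compounds at five concentrations across a 10,000-fold range, patient-derived ovarian cancer cells below passage 10 were incubated for 72 h at 37 °C with 5% CO2. CellTiter-Glo readout of viability was processed in Breeze. A higher drug sensitivity score, defined as the partial area under the percent-inhibition dose-response curve divided by the log of the upper asymptote, means greater sensitivity.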
# FMOC03 = patient-derived mucinous ovarian cancer cells; conditions: 72 h; library: FO5A; assay format: 2D, 384-well, CellTiter-Glo
# Outline: as §1
# FMOC02_2 = patient-derived low-grade serous ovarian cancer cells; conditions: 72 h; library: FO5A; assay format: 2D, 384-well, CellTiter-Glo
# Outline: as §1
# FMOC09 = patient-derived high-grade serous ovarian cancer cells; conditions: 72 h; library: FO5A; assay format: 2D, 384-well, CellTiter-Glo
# Outline: as §1
# FMOC22 = patient-derived mucinous ovarian cancer cells; conditions: 72 h; library: FO5A; assay format: 2D, 384-well, CellTiter-Glo
# Outline: as §1
# FMOC25_1 = patient-derived low-grade serous ovarian cancer cells; conditions: 72 h; library: FO4B; assay format: 2D, 384-well, CellTiter-Glo
# Outline: as §1
# FMOC14 = patient-derived high-grade serous ovarian cancer cells; conditions: 72 h; library: FO5A; assay format: 2D, 384-well, CellTiter-Glo
# Outline: as §1
# FMOC24 = patient-derived high-grade serous ovarian cancer cells; conditions: 72 h; library: FO5A; assay format: 2D, 384-well, CellTiter-Glo
# Outline: as §1
# FMOC02_3 = patient-derived low-grade serous ovarian cancer cells; conditions: 72 h; library: FO5A; assay format: 2D, 384-well, CellTiter-Glo
# Outline: as §1
# FMOC25_2 = patient-derived low-grade serous ovarian cancer cells; conditions: 72 h; library: FO5A; assay format: 2D, 384-well, CellTiter-Glo
# Outline: as §1
Compound,drug sensitivity score (FMOC06),drug sensitivity score (FMOC03),drug sensitivity score (FMOC02_2),drug sensitivity score (FMOC09),drug sensitivity score (FMOC22),drug sensitivity score (FMOC25_1),drug sensitivity score (FMOC14),drug sensitivity score (FMOC24),drug sensitivity score (FMOC02_3),drug sensitivity score (FMOC25_2)
N#CCNC(=O)c1ccc(-c2ccnc(Nc3ccc(N4CCOCC4)cc3)n2)cc1 [Momelotinib],2.7,2.4,6,1.2,3.2,5.4,1.7,5.95,9.9,9.3
CN1CC[C@H](c2c(O)cc(O)c3c(=O)cc(-c4ccccc4Cl)oc23)[C@H](O)C1 [Alvocidib],17,17.9,21.3,10.7,12.8,19.1,15.3,18.7,22.4,19.6
O=C(O)c1ccc2c(c1)nc(Nc1cccc(Cl)c1)c1ccncc12 [Silmitasertib],6.9,7,4.1,4.5,6,3.6,4.9,2.55,6.3,5.2
C[C@@]1(C(=O)Nc2ccc(F)nc2)CCCN1c1nc(Nc2cc(C3CC3)n[nH]2)c2cccn2n1,14.7,7,14.3,14.7,9.5,9.2,2.2,2.75,18.9,14.6
COc1cc2c(cc1-c1c(C)noc1C)ncc1[nH]c(=O)n([C@H](C)c3ccccn3)c12 [I-BET151],4.7,6.6,10.1,4.5,5.1,4.5,1.3,7.05,11.3,7.8
CNC(=O)CN1CCC(Oc2cc3c(Nc4cccc(Cl)c4F)ncnc3cc2OC)CC1 [Sapitinib],0.3,14.7,14,10.4,0.9,9.4,4.2,0.2,13.8,10
CS(=O)(=O)N1CCN(Cc2cc3nc(-c4cccc5[nH]ncc45)nc(N4CCOCC4)c3s2)CC1 [Pictilisib],10.6,9.4,16.8,11.9,5.1,12.9,9.2,5.35,16.1,14.3
C=CC(=O)N1CCC[C@@H](n2nc(-c3ccc(Oc4ccccc4)cc3)c3c(N)ncnc32)C1 [Ibrutinib],0.3,8.8,10.2,6,0,5.6,2.7,0.5,7.3,6.5
CCc1cncnc1N1CCN(Cc2nc3ccc(C(F)(F)F)cc3[nH]2)CC1,0.5,0.8,3.9,0.1,1.3,1.3,1.3,5.2,5.3,6.2
Cc1nn(C)c(COc2ccc(N3CCN(S(=O)(=O)N(C)C)CC3)cc2)c1-c1cccc2c(CCCOc3cccc4ccccc34)c(C(=O)O)n(CCN3CCOCC3)c12,7,5.9,6,5.9,8.2,5.6,7.6,6.7,7.5,4.7
Cc1nc(Nc2n[nH]c3c2CN(C(=O)N[C@H](CN(C)C)c2ccccc2)C3(C)C)c2sccc2n1,13.7,10.6,12.8,10.2,10.5,16.7,6.5,8.1,20.9,26.6
CC(C)[C@H](C(=O)Nc1ccc(C(=O)NO)cc1)c1ccccc1 [AR-42],10.6,12.4,11,5.2,8.7,10.1,11.5,9.3,8.8,10.7
O=C(Nc1ccc2[nH]nc(-c3ccncc3)c2c1)[C@@H]1CCN(CC(=O)N2CCN(c3ccc(-c4ncccn4)cc3)CC2)C1,14.9,18.4,14.3,9.6,11.8,16.6,1.1,3.15,16.8,18
CN[C@@H]1C[C@H]2O[C@@](C)([C@@H]1OC)n1c3ccccc3c3c4c(c5c6ccccc6n2c5c31)C(=O)N[C@H]4O [UCN-01],23.2,17.2,33.1,20.7,15.9,31,19.8,24.4,33.7,34.4
COc1cc(Nc2ncc3c(n2)-c2ccc(Cl)cc2C(c2c(F)cccc2OC)=NC3)ccc1C(=O)O [Alisertib],1.3,4.7,4.8,2.3,2.2,0.9,0.7,1,5.8,2.3
CC(C)[C@H]1C(=O)N[C@@H](CCCNC(=N)N)C(=O)NCC(=O)N[C@@H](CC(=O)O)C(=O)N[C@H](Cc2ccccc2)C(=O)N1C [Cilengitide],0,0.1,0,4.3,0,0,1.9,2.4,1.3,0
Cc1cc2c(C(=O)NC[C@H](C)c3ccccc3)c(O)c(O)cc2c(O)c1-c1c(C)cc2c(C(=O)NC[C@H](C)c3ccccc3)c(O)c(O)cc2c1O [Sabutoclax],5.6,9.6,5.2,9.3,10.8,6.2,12.6,6.6,9.1,5.3
COc1c(OCCCN2CCOCC2)ccc2c1N=C(NC(=O)c1cnc(N)nc1)N1CCN=C21 [Copanlisib],12.8,8.5,17.4,10.5,5.2,11.7,6.6,3.1,19.6,16.8
O=C(NOCCO)c1ccc2cncn2c1Nc1ccc(I)cc1F [GDC-0623],6.1,1.3,7.3,4,7.2,9.6,0.1,1.35,5.3,11.2
Nc1nc(Cl)nc2c1ncn2[C@@H]1O[C@H](CO)[C@@H](O)[C@@H]1F [Clofarabine],5.3,4.1,8.9,7.8,10.5,8.5,0,4.9,13.7,16.5
CC(=O)Nc1cccc(-n2c(=O)n(C3CC3)c(=O)c3c(Nc4ccc(I)cc4F)n(C)c(=O)c(C)c32)c1 [Trametinib],15.9,16.6,15.1,9.9,11.6,12.4,0.9,0,14,12
Nc1ncn([C@@H]2O[C@H](CO)[C@@H](O)[C@H]2O)c(=O)n1 [Azacitidine],1.3,1.8,5.7,4.1,3.7,3.2,5,14.2,4.7,3

Compound,drug sensitivity score (FMOC06),drug sensitivity score (FMOC03),drug sensitivity score (FMOC02_2),drug sensitivity score (FMOC09),drug sensitivity score (FMOC22),drug sensitivity score (FMOC25_1),drug sensitivity score (FMOC14),drug sensitivity score (FMOC24),drug sensitivity score (FMOC02_3),drug sensitivity score (FMOC25_2)
COc1cc(NS(C)(=O)=O)ccc1Nc1c2ccccc2nc2ccccc12 [Amsacrine],4.5,6,5.2,4.7,8.3,8.2,2.2,8.05,7,7.1
CNc1ncc2cc(-c3cc(NC(=O)NCCC(C)(C)C)c(F)cc3C)c(C)nc2n1,11.8,12,12.5,9.5,9.3,11.1,1.3,1.7,16.9,14.8
COc1c(C)cnc(Cn2cnc3c(Cl)nc(N)nc32)c1C [BIIB021],10,17.2,16.9,13.7,11.7,13,13.2,10.7,21.1,15.5
Cc1cc(-c2nc(-c3ccc(OC(F)(F)F)cc3)no2)nn1Cc1ccnc(N2CCN(C3CC3)CC2)c1 [BAY 87-2243],0,6.4,0,0,6,2.2,3.1,0,0,5.3
C=CCNC1=C2C[C@@H](C)C[C@H](OC)[C@H](O)[C@@H](C)/C=C(\C)[C@H](OC(N)=O)[C@@H](OC)/C=C\C=C(/C)C(=O)NC(=CC1=O)C2=O [Tanespimycin],,,,,,14.6,,,,
CS(=O)(=O)c1ccc(C2=C(c3ccccc3)C(=O)OC2)cc1 [Rofecoxib],,,,,,0,,,,
O=NN(CCCl)C(=O)NCCCl [Carmustine],,,,,,0.4,,,,
Cc1cc(-c2ncc(-c3cccnc3)cc2/C=C/c2ccccc2)cnc1-c1cccnc1 [Pyridoclax],,,,,,5.5,,,,
C=CCn1c(=O)c2cnc(Nc3ccc(N4CCN(C)CC4)cc3)nc2n1-c1cccc(C(C)(C)O)n1 [MK1775],,,,,,11.5,,,,
CS(=O)(=O)OCCCCOS(C)(=O)=O [Busulfan],,,,,,0,,,,
NC(=O)Nc1sc(-c2ccc(F)cc2)cc1C(N)=O [TPCA-1],,,,,,2.9,,,,
COc1cc(O)c2c(c1)/C=C/C[C@H](O)[C@H](O)C(=O)/C=C\C[C@H](C)OC2=O [(5Z)-7-Oxozeaenol],,,,,,0,,,,
NC(=O)c1ccc(I)c([N+](=O)[O-])c1 [Iniparib],,,,,,0,,,,
O=C(Nc1ccc(OC(F)(F)F)cc1)c1sccc1NCc1ccnc2ccccc12 [OSI-930],,,,,,0,,,,
O=P1(N(CCCl)CCCl)NCCCO1 (configuration not stated) [Cyclophosphamide],,,,,,0,,,,
COCC[n+]1c2c(n(Cc3cnccn3)c1C)C(=O)c1ccccc1C2=O [YM155],,,,,,35.5,,,,
O=[N+]([O-])c1ccc2c(c1)S(=O)(=O)C=C2 [Stattic],,,,,,6.3,,,,
c1ccc(Cn2c(-c3ccc(OC[C@H](C4CCNCC4)n4c(-c5ccccc5)nc5ccccc54)cc3)nc3ccccc32)cc1 [deltarasin],,,,,,5.5,,,,
CCNC(=O)C[C@@H]1N=C(c2ccc(Cl)cc2)c2cc(OC)ccc2-n2c(C)nnc21,,,,,,3.8,,,,
CO[C@H]1/C=C\C=C(/C)C(=O)NC2=CC(=O)C(NCCN(C)C)=C(C[C@@H](C)C[C@H](OC)[C@H](O)[C@@H](C)/C=C(\C)[C@@H]1OC(N)=O)C2=O [Alvespimycin],,,,,,4.1,,,,
COc1cccc2cc(-c3nc([C@H]4CC[C@H](C(=O)O)CC4)n4ncnc(N)c34)[nH]c12 [OSI-027],,,,,,8.2,,,,
